Laboratory results published in patent US20120041167A1, “POLY(GLUTAMIC ACID)-DRUG CONJUGATE WITH AN AMINO ACID AS A LINKER” (Institute of Pharmacology and Toxicology Academy of …, priority 2006, published 2012).

What was measured:
[1] = system: human breast cancer cells (Bacp-37); test: Activities against transplanted human breast cancer tumor in mice; type: in vivo, Balb/c-nu/nu nude mice; settings: Bacp-37 xenograft, 20 days after administration; for Inhibition rate (%): tumor weight vs control group
Experimental: (§1) Balb/c-nu/nu nude mice (5 to 7 weeks old, 16-20 g) were randomly grouped. The mice were inoculated subcutaneously with 0.1 ml of a cell suspension containing 10^6 human breast cancer cells (Bacp-37). Upon the tumor volume having reached 50 mm^3, the mice were intravenously injected with a dose of a conjugate or a free drug. Twenty days after the administration, the animals were sacrificed and their body weight and tumor weight were measured.

[2] = system: human liver cancer cells (HepG2); test: Activities against transplanted human liver cancer tumor in mice; type: in vivo, Balb/c-nu/nu nude mice; settings: HepG2 xenograft, 20 days after administration; for Inhibition rate (%): tumor weight vs control group
Experimental: as §1, with “liver” for “breast”, “(HepG2).” for “(Bacp-37).”, “measured. Tumor inhibition rate was calculated according to the following equation: […]” for “measured.”

[3] = single i.v. dose 100 mg/kg (as free drug)

“[N-acetyl-poly-(L)-glutamic acid]-[5′-O-(L-alanyl)-gemcitabine] conjugate [Compound I8]” was tested. Which “Weight of tumor” value ([1]; i.v. 5 mg/kg) did it give?
Its value is 0.39 g.

What about the “Inhibition rate (%)” value ([1]; i.v. 5 mg/kg) of the same compound?
Its value is 71.73%.

With “[N-acetyl-poly-(L)-glutamic acid]-[2′-O-(L-valyl)-paclitaxel] conjugate [Compound I22]” as the compound, how does the “Weight of tumor” value ([1]; i.v. 100 mg/kg) read?
The value was 0.41 g.

What about the “Inhibition rate (%)” value ([1]; i.v. 100 mg/kg) of the same compound?
The value was 70.29%.

For “[N-acetyl-poly-(L)-glutamic acid]-[2′-O-(L-alanyl)-docetaxel] conjugate [Compound I12]”, which “Weight of tumor” value ([1]; i.v. 100 mg/kg) is on record?
The value was 0.34 g.

What about the “Inhibition rate (%)” value ([1]; i.v. 100 mg/kg) of the same compound?
The value was 75.36%.

Which results are given for “[N-acetyl-poly-(L)-glutamic acid]-[2′-O-(glycyl)-docetaxel] conjugate [Compound I6]”?
Weight of tumor ([1]; i.v. 100 mg/kg): 0.47 g; Inhibition rate (%) ([1]; i.v. 100 mg/kg): 65.94%

“[N-acetyl-poly-(L)-glutamic acid]-[2′-O-(L-alanyl)-paclitaxel] conjugate [Compound I10]” was tested. Which “Weight of tumor” value ([1]; i.v. 100 mg/kg) did it give?
Its value is 0.29 g.

And the “Inhibition rate (%)” value ([1]; i.v. 100 mg/kg)?
The value was 78.99%.

How did the “Weight of tumor” value ([1]; i.v. 100 mg/kg) turn out when “[N-acetyl-poly-(L)-glutamic acid]-[2′-O-(L-isoleucyl)-docetaxel] conjugate [Compound I18]” was run?
Its value is 0.73 g.

What about the “Inhibition rate (%)” value ([1]; i.v. 100 mg/kg) of the same compound?
Its value is 47.10%.

Which results are given for `Nc1ccn([C@@H]2O[C@H](CO)[C@@H](O)C2(F)F)c(=O)n1` [Gemcitabine]?
Change of body weight (g) ([1]; i.v. 5 mg/kg): +5.08 g; Weight of tumor ([1]; i.v. 5 mg/kg): 0.51 g; Inhibition rate (%) ([1]; i.v. 5 mg/kg): 63.08%; Number of animals (final/initial) ([1]; single i.v. dose 5 mg/kg): 5/6; Change of body weight (g) ([2]; i.v. 5 mg/kg (as free drug)): +4.77 g; Weight of tumor ([2]; i.v. 5 mg/kg (as free drug)): 0.45 g; Inhibition rate (%) ([2]; i.v. 5 mg/kg (as free drug)): 64.28%; Number of animals (final/initial) ([2]; single i.v. dose 5 mg/kg (as free drug)): 4/6

What does the source list for `CC(=O)O[C@H]1C(=O)[C@@]2(C)[C@H]([C@H](OC(=O)c3ccccc3)[C@]3(O)C[C@H](OC(=O)[C@H](O)[C@@H](NC(=O)c4ccccc4)c4ccccc4)C(C)=C1C3(C)C)[C@]1(OC(C)=O)CO[C@@H]1C[C@@H]2O` [Paclitaxel]?
Change of body weight (g) ([1]; i.v. 100 mg/kg): +5.91 g; Weight of tumor ([1]; i.v. 100 mg/kg): 0.48 g; Inhibition rate (%) ([1]; i.v. 100 mg/kg): 65.22%; Number of animals (final/initial) ([1]; single i.v. dose 100 mg/kg): 5/6; Change of body weight (g) ([2]; i.v. 100 mg/kg (as free drug)): +5.38 g; Weight of tumor ([2]; i.v. 100 mg/kg (as free drug)): 0.54 g; Inhibition rate (%) ([2]; i.v. 100 mg/kg (as free drug)): 57.14%; Number of animals (final/initial) [2, 3]: 5/6

How did the “Weight of tumor” value ([1]; i.v. 5 mg/kg) turn out when “[poly-(L)-glutamic acid]-[5′-O-(glycyl)-gemcitabine] conjugate [Compound I1]” was run?
Its value is 0.46 g.

What about the “Inhibition rate (%)” value ([1]; i.v. 5 mg/kg) of the same compound?
The value was 71.01%.

Which “Weight of tumor” value ([1]; i.v. 100 mg/kg) does the source give for “[N-acetyl-poly-(L)-glutamic acid]-[2′-O-(glycyl)-paclitaxel] conjugate [Compound I4]” here?
The value was 0.42 g.

And the “Inhibition rate (%)” value ([1]; i.v. 100 mg/kg)?
The value was 69.56%.

Which “Change of body weight (g)” value ([1]; i.v. 100 mg/kg) does the source give for `CC(=O)O[C@@]12CO[C@@H]1C[C@H](O)[C@@]1(C)C(=O)[C@H](O)C3=C(C)[C@@H](OC(=O)[C@H](O)[C@@H](NC(=O)OC(C)(C)C)c4ccccc4)C[C@@](O)([C@@H](OC(=O)c4ccccc4)[C@H]21)C3(C)C` [Docetaxel] here?
The value was “+6.29 g”.

What about the “Weight of tumor” value ([1]; i.v. 100 mg/kg) of the same compound?
Its value is 0.35 g.

And the “Number of animals (final/initial)” value ([1]; single i.v. dose 100 mg/kg)?
The value was 6/6.

And the “Change of body weight (g)” value ([2]; i.v. 100 mg/kg (as free drug))?
Its value is “+6.92 g”.

What about the “Weight of tumor” value ([2]; i.v. 100 mg/kg (as free drug)) of the same compound?
The value was 0.56 g.

What about the “Inhibition rate (%)” value ([2]; i.v. 100 mg/kg (as free drug)) of the same compound?
The value was 55.56%.

What about the “Number of animals (final/initial)” value [2, 3] of the same compound?
Its value is 6/6.
